From paper PMC9090415, “Discovery of small molecule inhibitors of Plasmodium falciparum apicoplast DNA polymerase” (Journal of Enzyme Inhibition and Medicinal Chemistry, 2022)

Target: T1, bacteriophage T4 DNA polymerase (Enterobacteria phage T4, UniProt P04415)
T1 construct: made in house
T1 sequence (P04415 1-898): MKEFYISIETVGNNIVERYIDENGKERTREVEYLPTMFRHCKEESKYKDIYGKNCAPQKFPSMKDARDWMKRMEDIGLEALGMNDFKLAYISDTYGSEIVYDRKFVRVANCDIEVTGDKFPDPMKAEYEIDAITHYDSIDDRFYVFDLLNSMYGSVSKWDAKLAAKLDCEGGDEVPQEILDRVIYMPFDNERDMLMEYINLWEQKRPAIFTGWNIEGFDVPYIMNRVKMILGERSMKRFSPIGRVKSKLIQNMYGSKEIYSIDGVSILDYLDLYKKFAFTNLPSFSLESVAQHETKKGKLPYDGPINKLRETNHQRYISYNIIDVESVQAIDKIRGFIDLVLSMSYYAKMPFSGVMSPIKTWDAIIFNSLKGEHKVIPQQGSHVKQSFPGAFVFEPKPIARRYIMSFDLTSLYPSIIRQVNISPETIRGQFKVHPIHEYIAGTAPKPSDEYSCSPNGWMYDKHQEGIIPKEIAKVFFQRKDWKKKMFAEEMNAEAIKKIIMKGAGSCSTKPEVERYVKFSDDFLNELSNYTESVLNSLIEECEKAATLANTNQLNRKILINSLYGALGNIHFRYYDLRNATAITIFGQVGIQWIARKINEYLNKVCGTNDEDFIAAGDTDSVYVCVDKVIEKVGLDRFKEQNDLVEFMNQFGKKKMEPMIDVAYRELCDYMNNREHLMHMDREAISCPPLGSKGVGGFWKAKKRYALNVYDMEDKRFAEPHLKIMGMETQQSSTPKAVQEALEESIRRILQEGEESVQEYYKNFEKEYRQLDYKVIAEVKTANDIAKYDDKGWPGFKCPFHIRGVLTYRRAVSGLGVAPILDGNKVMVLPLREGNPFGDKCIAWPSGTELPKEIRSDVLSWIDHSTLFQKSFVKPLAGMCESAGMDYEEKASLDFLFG
Experiment: Counter-screen against bacteriophage T4 DNA polymerase
Format: biochemical
Conditions: for % inhibition T4 10' 2.5 / % inhibition T4 10' 5 / % inhibition T4 10' 10 / % inhibition T4 10' 20 / % inhibition T4 10' 40 / % inhibition T4 10' 80: read at 10'; for % inhibition T4 70' 2.5 / % inhibition T4 70' 5 / % inhibition T4 70' 10 / % inhibition T4 70' 20 / % inhibition T4 70' 40 / % inhibition T4 70' 80: read at 70'; for % inhibition T4 130' 2.5 / % inhibition T4 130' 5 / % inhibition T4 130' 10 / % inhibition T4 130' 20 / % inhibition T4 130' 40 / % inhibition T4 130' 80: read at 130'; for % inhibition T4 40' 2.5 / % inhibition T4 40' 5 / % inhibition T4 40' 10 / % inhibition T4 40' 20 / % inhibition T4 40' 40 / % inhibition T4 40' 80: read at 40'; for % inhibition T4 90' 2.5 / % inhibition T4 90' 5 / % inhibition T4 90' 10 / % inhibition T4 90' 20 / % inhibition T4 90' 40 / % inhibition T4 90' 80: read at 90'; for % inhibition T4 180' 2.5 / % inhibition T4 180' 5 / % inhibition T4 180' 10 / % inhibition T4 180' 20 / % inhibition T4 180' 40 / % inhibition T4 180' 80: read at 180'
Procedure: Codon-optimized, exonuclease-deficient Pf-apPOL was overexpressed in E. coli BL21 (DE3) and purified as described. The protein was dialysed against two, 1-liter changes of 20 mM Tris-HCl (pH 8.0), 400 mM NaCl, and 20% glycerol. Plasmodium bergei and Babesia bovis apPOLs (Pb-apPOL and Bb-apPOL, respectively) were codon-optimized, expressed, and purified as for Pf-apPOL[15]. Bacteriophage T4 DNA polymerase was purified as described. The DNA oligonucleotides used to make the high-throughput substrate were obtained from Integrated DNA Technologies. Deoxynucleotides were purchased from Strategene. All other materials came from Fisher Scientific.
Each compound was tested in a dose-response format to determine IC50 values. […] T4 DNA polymerase can be produced in large quantities, and is in the same family (B-family) as the replicative human DNA polymerases (α, δ, and ε)[20].

## CC(=O)c1cc2c(N)c(/C(N)=N/C#N)sc2nc1C [KU0015866]
DRC-2, concentration 2.5
  % inhibition T4 10': -16%
  % inhibition T4 40': -16%
  % inhibition T4 180': -20%
DRC-2, concentration 5
  % inhibition T4 10': -17%
  % inhibition T4 40': -17%
  % inhibition T4 90': -16%
  % inhibition T4 180': -23%
DRC-2, concentration 10
  % inhibition T4 10': -18%
  % inhibition T4 40': -18%
  % inhibition T4 90': -18%
DRC-2, concentration 20
  % inhibition T4 10': -17%
  % inhibition T4 40': -17%
  % inhibition T4 90': -18%
  % inhibition T4 180': -23%
DRC-2, concentration 40
  % inhibition T4 10': -11%
  % inhibition T4 40': -11%
  % inhibition T4 90': -11%
  % inhibition T4 180': -16%
DRC-2, concentration 80
  % inhibition T4 10': -21%
  % inhibition T4 40': -21%
  % inhibition T4 90': -20%

## O=C(CSc1nnc(-c2ccco2)[nH]1)c1ccc(Cl)cc1 [KU0029065]
DRC-2, concentration 10
  % inhibition T4 40': 3%
  % inhibition T4 180': -2%
DRC-2, concentration 40
  % inhibition T4 40': -2%
DRC-2, concentration 2.5
  % inhibition T4 90': -13%
  % inhibition T4 180': -13%
DRC-2, concentration 20
  % inhibition T4 90': 3%

## COc1ccc(-c2n[nH]cc2Oc2ccc(Cl)cc2)c(O)c1 [KU0029837]
DRC-2, concentration 2.5
  % inhibition T4 10': -22%
  % inhibition T4 40': -22%
  % inhibition T4 90': -22%
  % inhibition T4 180': -26%
DRC-2, concentration 5
  % inhibition T4 10': -28%
  % inhibition T4 40': -28%
DRC-2, concentration 10
  % inhibition T4 10': -25%
  % inhibition T4 40': -25%
  % inhibition T4 90': -26%
  % inhibition T4 180': -30%
DRC-2, concentration 20
  % inhibition T4 10': -25%
  % inhibition T4 40': -25%
  % inhibition T4 90': -25%
  % inhibition T4 180': -30%
DRC-2, concentration 40
  % inhibition T4 10': -19%
  % inhibition T4 40': -19%
DRC-2, concentration 80
  % inhibition T4 10': -34%
  % inhibition T4 40': -34%
  % inhibition T4 90': -34%

## Nc1cc(Oc2ccc(O)c(N)c2)ccc1O [KU0034728]
DRC-1, concentration 2.5
  % inhibition T4 10' 2.5: 10.6184%
  % inhibition T4 70' 2.5: 10.2077%
  % inhibition T4 130' 2.5: 10.8947%
DRC-1, concentration 5
  % inhibition T4 10' 5: 9.797%
  % inhibition T4 70' 5: 9.3179%
  % inhibition T4 130' 5: 9.975%
DRC-1, concentration 10
  % inhibition T4 10' 10: 12.6946%
  % inhibition T4 70' 10: 12.3114%
  % inhibition T4 130' 10: 11.1726%
DRC-1, concentration 20
  % inhibition T4 10' 20: 6.887%
  % inhibition T4 70' 20: 7.7965%
  % inhibition T4 130' 20: 8.154%
DRC-1, concentration 40
  % inhibition T4 10' 40: 15.6951%
  % inhibition T4 70' 40: 14.4419%
  % inhibition T4 130' 40: 14.6568%
DRC-1, concentration 80
  % inhibition T4 10' 80: 21.8837%
  % inhibition T4 70' 80: 19.0676%
  % inhibition T4 130' 80: 18.4293%
DRC-2, concentration 2.5
  % inhibition T4 10' 2.5: -8.57%
  % inhibition T4 40' 2.5: -8%
  % inhibition T4 90' 2.5: -7%
  % inhibition T4 180' 2.5: -11%
DRC-2, concentration 5
  % inhibition T4 10' 5: -11%
  % inhibition T4 40' 5: -11%
  % inhibition T4 90' 5: -9.49%
  % inhibition T4 180' 5: -15%
DRC-2, concentration 10
  % inhibition T4 10' 10: -3.21%
  % inhibition T4 40' 10: -5.5%
  % inhibition T4 90' 10: -3.47%
  % inhibition T4 180' 10: -8%
DRC-2, concentration 20
  % inhibition T4 10' 20: -7%
  % inhibition T4 40' 20: -8%
  % inhibition T4 90' 20: -7%
  % inhibition T4 180' 20: -11%
DRC-2, concentration 40
  % inhibition T4 10' 40: 3.18%
  % inhibition T4 40' 40: -2.76%
  % inhibition T4 90' 40: -4.46%
  % inhibition T4 180' 40: -7.51%
DRC-2, concentration 80
  % inhibition T4 10' 80: 12%
  % inhibition T4 40' 80: -1.54%
  % inhibition T4 90' 80: -9%
  % inhibition T4 180' 80: -14%

## O=C(Nc1ccc2c(c1)Cc1cc(NC(=O)c3ccco3)ccc1-2)c1ccco1 [KU0038977]
DRC-2, concentration 80
  % inhibition T4 10': 20%
  % inhibition T4 90': 35%
DRC-2, concentration 20
  % inhibition T4 40': 25%
  % inhibition T4 90': 25%
  % inhibition T4 180': 20%
DRC-2, concentration 40
  % inhibition T4 40': 35%
  % inhibition T4 90': 35%

## O=C(NC(C(Cl)Cl)S(=O)(=O)c1ccccc1)c1ccccc1 (stereo not shown) [KU0045239]
DRC-2, concentration 10
  % inhibition T4 10': -19%
  % inhibition T4 40': -19%
  % inhibition T4 180': -18%
DRC-2, concentration 5
  % inhibition T4 40': -21%
  % inhibition T4 90': -17%
  % inhibition T4 180': -21%
DRC-2, concentration 20
  % inhibition T4 40': -26%
  % inhibition T4 90': -18%
  % inhibition T4 180': -17%
DRC-2, concentration 40
  % inhibition T4 40': -26%
  % inhibition T4 90': -18%
DRC-2, concentration 2.5
  % inhibition T4 90': -26%

## O=c1[nH]c2ccc([N+](=O)[O-])cc2c(-c2ccccc2)c1Sc1nc2ccccc2o1 [KU0067471]
DRC-2, concentration 10
  % inhibition T4 10': 35%
  % inhibition T4 40': 36%
DRC-2, concentration 20
  % inhibition T4 10': 35%
  % inhibition T4 90': 36%
DRC-2, concentration 40
  % inhibition T4 40': 48%
  % inhibition T4 90': 47%
DRC-2, concentration 80
  % inhibition T4 40': 47%
  % inhibition T4 90': 48%
  % inhibition T4 180': 47%
DRC-2, concentration 2.5
  % inhibition T4 90': 11%
DRC-2, concentration 5
  % inhibition T4 180': 11%

## N#Cc1c(O)nc(N2CCCCC2)nc1-c1ccc2c(c1)OCO2 [KU0083146]
DRC-1, concentration 2.5
  % inhibition T4 10' 2.5: -1.681%
  % inhibition T4 70' 2.5: -2.1541%
  % inhibition T4 130' 2.5: -4.596%
DRC-1, concentration 5
  % inhibition T4 10' 5: -6.153%
  % inhibition T4 70' 5: -7.277%
  % inhibition T4 130' 5: -9.967%
DRC-1, concentration 10
  % inhibition T4 10' 10: -0.208%
  % inhibition T4 70' 10: -0.8576%
  % inhibition T4 130' 10: -3.465%
DRC-1, concentration 20
  % inhibition T4 10' 20: -4.89%
  % inhibition T4 70' 20: -6.699%
  % inhibition T4 130' 20: -8.629%
DRC-1, concentration 40
  % inhibition T4 10' 40: 2.23%
  % inhibition T4 70' 40: -0.3941%
  % inhibition T4 130' 40: -2.723%
DRC-1, concentration 80
  % inhibition T4 10' 80: 27.8578%
  % inhibition T4 70' 80: 25.8853%
  % inhibition T4 130' 80: 26.2784%
DRC-2, concentration 2.5
  % inhibition T4 10' 2.5: 12%
  % inhibition T4 40' 2.5: 13%
  % inhibition T4 90' 2.5: 13%
  % inhibition T4 180' 2.5: 12%
DRC-2, concentration 5
  % inhibition T4 10' 5: 9%
  % inhibition T4 40' 5: 10%
  % inhibition T4 90' 5: 12%
  % inhibition T4 180' 5: 11%
DRC-2, concentration 10
  % inhibition T4 10' 10: -0.482%
  % inhibition T4 40' 10: 2%
  % inhibition T4 90' 10: 2.84%
  % inhibition T4 180' 10: 4%
DRC-2, concentration 20
  % inhibition T4 10' 20: -17%
  % inhibition T4 40' 20: -13%
  % inhibition T4 90' 20: -10%
  % inhibition T4 180' 20: -10%
DRC-2, concentration 40
  % inhibition T4 10' 40: -12%
  % inhibition T4 40' 40: -9%
  % inhibition T4 90' 40: -5.54%
  % inhibition T4 180' 40: -6.49%
DRC-2, concentration 80
  % inhibition T4 10' 80: -1.89%
  % inhibition T4 40' 80: 3.39%
  % inhibition T4 90' 80: 3.63%
  % inhibition T4 180' 80: 2.15%
